The values below come from publication PMC4411300, “Reconstitution and structure of a bacterial Pnkp1–Rnl–Hen1 RNA repair complex” (Nature Communications, 2015).

In assay [1] the target is Hen1 in the Pnkp1–Rnl–Hen1 heterohexamer (CgiHen1) (Capnocytophaga gingivalis, UniProt Z9ZGS5E134). Put plainly: X-ray crystal structure, […] Å, co-purified ligand. It is filed as binding. The following applies: methyltransferase active site of Hen1; retained from E. coli expression, not added; weak density, low occupancy.
The target in assay [2] is Capnocytophaga gingivalis Pnkp1 (Capnocytophaga gingivalis). Put plainly: SEC; purified proteins analysed singly, or two proteins combined in equimolar and incubated at 4 °C for an hour before size-exclusion chromatography.

`Nc1ncnc2c1ncn2[C@@H]1O[C@H](CSCC[C@H](N)C(=O)O)[C@@H](O)[C@H]1O` [SAH]: the “X-ray crystal structure, 3.4 Å, co-purified ligand” value in assay [1] is given as “SAH was modelled in the methyltransferase active site of Hen1-b”.
For the compound “Capnocytophaga gingivalis Pnkp1 (enzyme)”, the stoichiometry N in assay [2] came to 2.
